Measurements taken from US8785470B2, “Heterocyclic compounds and uses thereof” (Infinity Pharmaceuticals, Inc., priority 2011, dated 2014).
Where two headings read alike, the source gives them in different places.

What was measured:
[1] = target: T1, PI3Kα (Homo sapiens, UniProt P42336); experiment: PI3-Kinase HTRF assay, PI3Kα; format: biochemical; details: bins Greater than 10 μM and Greater than 1 μM to 10 μM; 10 μM ATP, PIP2 at 10 μM; read-out: IC50 P13Kα
T1 construct: purchased Millipore Corporation 14-602-K
Method in brief: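 Competitive time-resolved FRET readout of PIP3 formed from 10 μM PIP2 with 10 μM ATP, 1 h at room temperature, by each recombinant human isoform (α, β, γ, δ; 0.25-0.3 μg/ml). Compound (2% DMSO final) was preincubated 15 min with enzyme and substrate; IC50 fitted over 20 μM–0.1 nM, 12 points.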

[2] = system: phospho-AKT in RAW 264.7 cells (PI3Kγ); experiment: PI3Kγ selective assay, phospho-AKT in RAW 264.7 cells; format: cell-based; details: Mus musculus, RAW264.7, stimulated with C5a, read-out: IC50 for phospho-AKT, RAW 264.7 cell model
Source text: A compound's ability in selectively inhibiting PI3Kγ can be assessed using RAW264.7 macrophages. Briefly, serum-starved PAW264.7 cells are stimulated with a known GPCR agonist C5a. (See, e.g., Camps et al., Nature Medicine (2005) 11(9): 936-943). Cells can be treated with test compounds prior to, simultaneously with, or subsequent to the stimulation by C5a. RAW 264.7 cells respond to the complement component fragment C5a through activation of the C5a receptor, and the C5a receptor activates macrophages and induces cell migration. Test compounds' ability to inhibit C5a-mediated AKT phosphorylation is indicative of selective inhibition of PI3Kγ. Thus, by monitoring the reduction of phospho-AKT in stimulated RAW 264.7 cells (using for example, phospho-AKT antibodies), a compound's potential efficacy in selectively inhibiting PI3Kγ can be assessed.

[3] = system: phospho-AKT in RAJI cells (PI3Kδ); experiment: PI3Kδ selective assay, phospho-AKT in RAJI cells; format: cell-based; details: RAJI cells stimulated with anti-human IgM; read-out: IC50 for phospho-AKT, RAJI cell model
Source text: A compound's ability in selectively inhibiting PI3Kδ can be assessed using RAJI cells, i.e., B lymphocyte cells derived from lymphoma patients. Briefly, serum-starved RAJI cells are stimulated with anti-human IgM, thereby causing signaling through the B-cell receptors, as described in, for example, He et al., Leukemia Research (2009) 33: 798-802. B-cell receptor signaling is important for the activation, differentiation, and survival of B cells and certain B-cell derived cancers. Reduction of phospho-AKT is indicative of compounds that may inhibit B-cell proliferation and function in certain diseases. By monitoring the reduction of phospho-AKT in stimulated RAJI cells (using for example, phospho-AKT antibodies), a compound's potential efficacy in selectively inhibiting PI3Kδ can be assessed.

[4] = target: T2, PI3Kβ (Homo sapiens, UniProt P42338); experiment: PI3-Kinase HTRF assay, PI3Kβ; format: biochemical; details: bins Greater than 10 μM and Greater than 1 μM to 10 μM; 10 μM ATP, PIP2 at 10 μM
T2 construct: purchased Millipore Corporation 14-603-K
Source text: A PI3-Kinase HTRF® assay kit (cat No. 33-016) purchased from Millipore Corporation was used to screen compounds provided herein. This assay used specific, high affinity binding of the GRPI pleckstrin homology (PH) domain to PIP3, the product of a Class 1A or 1B PI3 Kinase acting on its physiological substrate PIP2. During the detection phase of the assay, a complex was generated between the GST-tagged PH domain and biotinylated short chain PIP3. The biotinylated PIP3 and the GST-tagged PH domain recruited fluorophores (Streptavidin-Allophycocyanin and Europium-labeled anti-GST respectively) to form the fluorescence resonance energy transfer (FRET) architecture, generating a stable time-resolved FRET signal. The FRET complex was disrupted in a competitive manner by non-biotinylated PIP3, a product formed in the PI3 Kinase assay.
PI3 Kinase α, β, γ and δ activity was assayed using the PI3 Kinase HTRF® assay kit (catalogue No. 33-016) purchased from Millipore Corporation. Purified recombinant PI3Kα (catalogue No. 14-602-K), PI3Kβ (catalogue No. 14-603-K), PI3Kγ (catalogue No. 14-558-K) and PI3Kδ (catalogue No. 14-604-K) were obtained from Millipore Corporation. Purified recombinant PI3K enzyme was used to catalyze the phosphorylation of phosphatidylinositol 4,5-bisphosphate (PIP2 at 10 μM) to phosphatidylinositol 3,4,5-trisphosphate (PIP3) in the presence of 10 μM ATP. The assay was carried out in 384-well format and detected using a Perkin Elmer EnVision Xcite Multilabel Reader. Emission ratios were converted into percent inhibitions and imported into GraphPad Prism software. The concentration necessary to achieve inhibition of enzyme activity by 50% (IC50) was calculated using concentrations ranging from 20 μM to 0.1 nM (12-point curve). IC50 values were determined using a nonlinear regression model available in GraphPad Prism 5. […]

[5] = system: Balb/c splenic B cells; experiment: B cell activation and proliferation assay; format: cell-based; details: Mus musculus, column bins 1 μM to 100 nM (given as 100-1000) and Less than 100 nM, read-out: B cell proliferation EC50
Method in brief: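 Read-out is metabolic activity by Alamar Blue reduction (5 h, 560Ex/590Em) after 72 h at 37° C, reported as IC50 or EC50. Compound (0.2% DMSO) was added 30 min before a cocktail holding 10 μg/ml LPS or 5 μg/ml F(ab′)2 anti-IgM with 2 ng/ml mouse IL4. Cells were purified Balb/c splenic B cells, 50.000 per well.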

[6] = ranges less than 100 nM and between 100 nM and 1 μM (given as 100-1000)

T2 sequence (P42338 whole entry): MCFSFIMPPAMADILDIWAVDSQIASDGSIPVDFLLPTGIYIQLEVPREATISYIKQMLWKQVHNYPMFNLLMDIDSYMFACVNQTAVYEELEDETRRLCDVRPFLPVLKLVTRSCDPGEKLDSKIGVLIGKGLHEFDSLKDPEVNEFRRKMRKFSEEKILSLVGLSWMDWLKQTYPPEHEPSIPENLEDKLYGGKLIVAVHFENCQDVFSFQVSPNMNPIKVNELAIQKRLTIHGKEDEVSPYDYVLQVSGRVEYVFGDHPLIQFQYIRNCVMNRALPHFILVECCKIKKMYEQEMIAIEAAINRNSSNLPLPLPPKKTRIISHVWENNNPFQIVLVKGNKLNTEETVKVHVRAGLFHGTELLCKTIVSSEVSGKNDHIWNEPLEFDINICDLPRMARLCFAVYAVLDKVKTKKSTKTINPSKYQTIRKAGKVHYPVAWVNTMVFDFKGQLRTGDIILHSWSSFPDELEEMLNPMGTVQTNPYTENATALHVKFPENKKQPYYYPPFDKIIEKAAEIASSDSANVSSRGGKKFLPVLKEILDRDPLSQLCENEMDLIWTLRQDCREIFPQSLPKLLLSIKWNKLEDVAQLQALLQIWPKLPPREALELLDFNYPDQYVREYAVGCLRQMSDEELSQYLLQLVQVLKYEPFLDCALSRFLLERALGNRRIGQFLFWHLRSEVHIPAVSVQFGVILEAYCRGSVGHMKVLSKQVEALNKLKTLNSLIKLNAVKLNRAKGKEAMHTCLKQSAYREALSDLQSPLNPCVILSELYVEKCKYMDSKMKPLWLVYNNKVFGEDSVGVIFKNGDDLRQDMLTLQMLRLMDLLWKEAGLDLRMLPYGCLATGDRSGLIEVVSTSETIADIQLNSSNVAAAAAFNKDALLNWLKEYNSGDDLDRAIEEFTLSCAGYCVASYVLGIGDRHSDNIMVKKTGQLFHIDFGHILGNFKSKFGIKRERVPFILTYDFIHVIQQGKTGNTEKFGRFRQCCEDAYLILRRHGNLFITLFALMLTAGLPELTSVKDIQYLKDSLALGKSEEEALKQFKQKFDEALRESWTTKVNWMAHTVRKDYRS
T2 sequence (P27986 whole entry partner): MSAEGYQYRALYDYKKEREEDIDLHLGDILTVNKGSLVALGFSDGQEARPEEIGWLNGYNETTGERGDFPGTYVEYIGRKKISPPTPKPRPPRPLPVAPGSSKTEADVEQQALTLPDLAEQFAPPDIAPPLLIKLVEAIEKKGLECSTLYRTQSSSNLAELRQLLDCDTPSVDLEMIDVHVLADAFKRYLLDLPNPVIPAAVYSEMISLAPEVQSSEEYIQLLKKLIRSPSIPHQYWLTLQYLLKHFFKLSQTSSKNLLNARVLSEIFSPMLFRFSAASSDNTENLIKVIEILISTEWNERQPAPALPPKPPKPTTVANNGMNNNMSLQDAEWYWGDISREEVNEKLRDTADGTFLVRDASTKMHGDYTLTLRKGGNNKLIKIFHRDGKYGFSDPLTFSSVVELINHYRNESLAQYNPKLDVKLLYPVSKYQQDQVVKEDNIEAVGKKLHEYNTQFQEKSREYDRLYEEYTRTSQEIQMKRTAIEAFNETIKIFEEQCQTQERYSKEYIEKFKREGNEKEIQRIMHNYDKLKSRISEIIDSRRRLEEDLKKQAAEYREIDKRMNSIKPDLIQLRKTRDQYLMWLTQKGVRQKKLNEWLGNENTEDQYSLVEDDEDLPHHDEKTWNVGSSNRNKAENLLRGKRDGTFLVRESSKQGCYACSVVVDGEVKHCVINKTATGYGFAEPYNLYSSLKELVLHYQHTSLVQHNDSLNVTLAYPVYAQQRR
T1 sequence (P42336 whole entry): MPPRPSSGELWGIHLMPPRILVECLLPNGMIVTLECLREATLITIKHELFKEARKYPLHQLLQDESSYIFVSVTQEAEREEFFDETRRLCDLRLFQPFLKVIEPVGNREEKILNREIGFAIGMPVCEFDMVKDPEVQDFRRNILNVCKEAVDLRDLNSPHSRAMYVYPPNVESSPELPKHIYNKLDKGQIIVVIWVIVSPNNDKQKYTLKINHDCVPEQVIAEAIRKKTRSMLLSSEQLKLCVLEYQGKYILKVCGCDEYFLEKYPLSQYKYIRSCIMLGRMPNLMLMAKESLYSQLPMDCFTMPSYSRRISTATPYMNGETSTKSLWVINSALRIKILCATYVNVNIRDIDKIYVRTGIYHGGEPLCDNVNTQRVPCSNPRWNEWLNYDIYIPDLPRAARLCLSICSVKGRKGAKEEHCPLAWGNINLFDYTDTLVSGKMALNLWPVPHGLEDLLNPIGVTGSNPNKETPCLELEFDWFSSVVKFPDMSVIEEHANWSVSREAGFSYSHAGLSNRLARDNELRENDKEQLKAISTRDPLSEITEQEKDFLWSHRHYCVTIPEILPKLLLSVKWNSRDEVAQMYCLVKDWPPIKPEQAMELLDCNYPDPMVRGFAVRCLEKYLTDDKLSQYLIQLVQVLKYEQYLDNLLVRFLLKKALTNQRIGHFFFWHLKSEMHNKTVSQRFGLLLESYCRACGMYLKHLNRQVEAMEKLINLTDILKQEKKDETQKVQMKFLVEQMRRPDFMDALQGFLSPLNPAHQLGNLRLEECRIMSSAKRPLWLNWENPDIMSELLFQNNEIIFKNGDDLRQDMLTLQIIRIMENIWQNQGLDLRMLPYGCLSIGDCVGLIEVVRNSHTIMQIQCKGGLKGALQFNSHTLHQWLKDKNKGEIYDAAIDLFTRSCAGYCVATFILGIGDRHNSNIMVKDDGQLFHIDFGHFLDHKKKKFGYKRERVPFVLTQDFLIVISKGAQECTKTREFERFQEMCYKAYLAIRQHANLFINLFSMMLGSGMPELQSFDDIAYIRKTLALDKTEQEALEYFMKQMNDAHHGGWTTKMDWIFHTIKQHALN
T1 sequence (P27986 whole entry partner): as the sequence (P27986 whole entry partner) above

C[C@H](Nc1nc(N)ncc1C#N)c1cc2cccc(-c3cccc(NS(=O)(=O)N(C)C)c3)c2c(=O)n1-c1ccccc1 [Compound 127]
IC50 [1]: 1000 to 10000 nM
IC50 [2, 6]: < 100 nM

C[C@H](Nc1nc(N)ncc1-c1cccc(S(=O)(=O)N2CCCCC2)c1)c1cc2cccc(Cl)c2c(=O)n1-c1ccccc1 [Compound 157]
IC50 [3]: < 100 nM
IC50 [2, 6]: < 100 nM

C[C@H](Nc1nc(N)ncc1C#N)c1cc2cccc(-c3cncc(S(C)(=O)=O)c3)c2c(=O)n1-c1ccccc1 [Compound 189]
IC50 [1]: 1000 to 10000 nM
IC50 [4]: 1000 to 10000 nM
EC50 [5]: < 100 nM

C[C@H](Nc1nc(N)ncc1C#N)c1cc2cccc(-c3c[nH]nn3)c2c(=O)n1-c1ccccc1 [Compound 196]
IC50 [1]: 1000 to 10000 nM
IC50 [4]: 1000 to 10000 nM
EC50 [5]: < 100 nM

C[C@H](Nc1nc(N)ncc1C#N)c1cc2cccc(C#CCCC(=O)N3CCCC3)c2c(=O)n1-c1ccccc1 [Compound 207]
IC50 [1]: 1000 to 10000 nM
IC50 [4]: 1000 to 10000 nM
EC50 [5]: < 100 nM

C[C@H](Nc1nc(N)ncc1-c1nccs1)c1cc2cccc(Cl)c2c(=O)n1-c1ccccc1 [Compound 224]
IC50 [1]: 1000 to 10000 nM
IC50 [4]: 1000 to 10000 nM
EC50 [5]: < 100 nM

CCn1cc(-c2cccc3cc([C@H](C)Nc4nc(N)ncc4C#N)n(-c4ccccc4)c(=O)c23)ccc1=O [Compound 230]
IC50 [1]: 1000 to 10000 nM
IC50 [4]: 1000 to 10000 nM
EC50 [5]: < 100 nM

C[C@H](Nc1nc(N)ncc1C#N)c1cc2cccc(-c3ccc(=O)n(CC4CC4)c3)c2c(=O)n1-c1ccccc1 [Compound 232]
IC50 [1]: 1000 to 10000 nM
IC50 [4]: 1000 to 10000 nM
EC50 [5]: < 100 nM

CC(C)n1cc(-c2cccc3cc([C@H](C)Nc4nc(N)ncc4C#N)n(-c4ccccc4)c(=O)c23)ccc1=O [Compound 234]
IC50 [1]: 1000 to 10000 nM
IC50 [4]: 1000 to 10000 nM
EC50 [5]: < 100 nM

COc1cc(-c2cccc3cc(CNc4nc(N)ncc4C#N)n(-c4ccccc4)c(=O)c23)ccn1 [Compound 242]
IC50 [3]: < 100 nM
IC50 [2, 6]: 100 to 1000 nM

C[C@H](Nc1nc(N)ncc1C#N)c1cc2cccc(Cl)c2c(=O)n1-c1cc(F)cc(F)c1 [Compound 273]
IC50 [3]: < 100 nM
IC50 [2, 6]: 100 to 1000 nM

C[C@H](Nc1nc(N)ncc1C#N)c1cc2cccc(Cl)c2c(=O)n1C [Compound 276]
IC50 [2, 6]: < 100 nM

C[C@H](Nc1nc(N)ncc1C#N)c1cc2cccc(Cl)c2c(=O)n1-c1cccc(C#N)c1 [Compound 285]
IC50 [1]: 1000 to 10000 nM
IC50 [3]: < 100 nM
IC50 [2, 6]: < 100 nM

C[C@H](Nc1nc(N)ncc1C#N)c1cc2cccc(Cl)c2c(=O)n1C1CCCCC1 [Compound 300]
IC50 [1]: 1000 to 10000 nM
IC50 [4]: 1000 to 10000 nM
EC50 [5]: < 100 nM

CC(C)OC(=O)c1cccc(-n2c([C@H](C)Nc3nc(N)ncc3C#N)cc3cccc(Cl)c3c2=O)c1 [Compound 312]
IC50 [3]: < 100 nM
IC50 [2, 6]: 100 to 1000 nM

COc1ncc(-c2cccc3cc([C@H](C)Nc4nc(N)ncc4C#N)n(C(C)C)c(=O)c23)cn1 [Compound 327]
IC50 [1]: 1000 to 10000 nM
IC50 [3]: < 100 nM
IC50 [2, 6]: 100 to 1000 nM

C[C@H](Nc1ncnc(N)c1C#N)c1cc2cccc(Cl)c2c(=O)n1-c1ccon1 [Compound 335]
IC50 [3]: < 100 nM
IC50 [2, 6]: 100 to 1000 nM

Cc1ncc(-c2cccc3cc([C@H](C)Nc4ncnc(N)c4C#N)n(-c4ccon4)c(=O)c23)cn1 [Compound 336]
IC50 [3]: < 100 nM
IC50 ([2]; range between 1 μM and 10 μM): 1000 to 10000 nM

COc1ncc(-c2cccc3cc([C@H](C)Nc4ncnc(N)c4C#N)n(-c4ccccc4)c(=O)c23)cn1 [Compound 356]
IC50 [3]: < 100 nM
IC50 [2, 6]: 100 to 1000 nM

C[C@H](Nc1nc(N)ncc1-c1cn[nH]c1)c1cc2cccc(Cl)c2c(=O)n1-c1ccccc1 [Compound 378]
IC50 [3]: < 100 nM
IC50 [2, 6]: 100 to 1000 nM

C[C@H](Nc1nc(N)ncc1-c1ccoc1)c1cc2cccc(Cl)c2c(=O)n1-c1ccccc1 [Compound 379]
IC50 [3]: < 100 nM
IC50 [2, 6]: < 100 nM

COc1ccc(-c2cnc(N)nc2N[C@@H](C)c2cc3cccc(Cl)c3c(=O)n2-c2ccccc2)cn1 [Compound 383]
IC50 [1]: 1000 to 10000 nM
IC50 [3]: < 100 nM
IC50 [2, 6]: < 100 nM

C[C@H](Nc1nc(N)ncc1-c1cncs1)c1cc2cccc(-c3ccc(=O)n(C)c3)c2c(=O)n1-c1ccccc1 [Compound 387]
IC50 [3]: < 100 nM
IC50 [2, 6]: 100 to 1000 nM

C[C@H](Nc1nc(N)ncc1-c1cscn1)c1cc2cccc(-c3ccc(=O)n(C)c3)c2c(=O)n1-c1ccccc1 [Compound 393]
IC50 [3]: < 100 nM
IC50 [2, 6]: 100 to 1000 nM

CC(=O)c1cnc(N)nc1N[C@@H](C)c1cc2cccc(Cl)c2c(=O)n1-c1ccccc1 [Compound 394]
IC50 [3]: < 100 nM
IC50 [2, 6]: < 100 nM

C[C@H](Nc1nc(N)ncc1-c1cccc(NS(=O)(=O)N(C)C)c1)c1cc2cccc(Cl)c2c(=O)n1-c1ccccc1 [Compound 410]
IC50 [3]: < 100 nM
IC50 [2, 6]: < 100 nM

C[C@H](Nc1nc(N)ncc1-c1cccc(S(=O)(=O)N(C)C)c1)c1cc2cccc(Cl)c2c(=O)n1-c1ccccc1 [Compound 413]
IC50 [3]: < 100 nM
IC50 [2, 6]: < 100 nM

C[C@H](Nc1nc(N)ncc1-c1cccc(S(N)(=O)=O)c1)c1cc2cccc(Cl)c2c(=O)n1-c1ccccc1 [Compound 414]
IC50 [1]: 1000 to 10000 nM
IC50 [3]: < 100 nM
IC50 [2, 6]: < 100 nM

C=CS(=O)(=O)Nc1cccc(-c2cnc(N)nc2N[C@@H](C)c2cc3cccc(Cl)c3c(=O)n2-c2ccccc2)c1 [Compound 415]
IC50 [3]: < 100 nM
IC50 [2, 6]: < 100 nM

CCS(=O)(=O)c1cccc(-c2cnc(N)nc2N[C@@H](C)c2cc3cccc(Cl)c3c(=O)n2-c2ccccc2)c1 [Compound 416]
IC50 [1]: 1000 to 10000 nM
IC50 [3]: < 100 nM
IC50 [2, 6]: < 100 nM

CNS(=O)(=O)c1cccc(-c2cnc(N)nc2N[C@@H](C)c2cc3cccc(Cl)c3c(=O)n2-c2ccccc2)c1 [Compound 418]
IC50 [1]: 1000 to 10000 nM
IC50 [3]: < 100 nM
IC50 [2, 6]: < 100 nM

C[C@H](Nc1nc(N)ncc1-c1cccc(S(=O)(=O)N2CCCC2)c1)c1cc2cccc(Cl)c2c(=O)n1-c1ccccc1 [Compound 419]
IC50 [3]: < 100 nM
IC50 [2, 6]: < 100 nM

C[C@H](Nc1ncncc1-c1cccc(S(=O)(=O)N(C)C)c1)c1cc2cccc(Cl)c2c(=O)n1-c1ccccc1 [Compound 422]
IC50 [1]: 1000 to 10000 nM
IC50 [3]: < 100 nM
IC50 [2, 6]: < 100 nM

C[C@H](Nc1nc(N)ncc1C#N)c1cc2cccc(-c3ccnc(NS(C)(=O)=O)c3)c2c(=O)n1-c1ccccc1 [Compound 443]
IC50 [1]: 1000 to 10000 nM
IC50 [4]: 1000 to 10000 nM
EC50 [5]: < 100 nM
